Experimental data: ChEMBL document CHEMBL5625200 (Eur J Med Chem, 2023)

Molecular target: T1, Endothelin-1 receptor (Homo sapiens, UniProt P25101)
T1 sequence (P25101 whole entry): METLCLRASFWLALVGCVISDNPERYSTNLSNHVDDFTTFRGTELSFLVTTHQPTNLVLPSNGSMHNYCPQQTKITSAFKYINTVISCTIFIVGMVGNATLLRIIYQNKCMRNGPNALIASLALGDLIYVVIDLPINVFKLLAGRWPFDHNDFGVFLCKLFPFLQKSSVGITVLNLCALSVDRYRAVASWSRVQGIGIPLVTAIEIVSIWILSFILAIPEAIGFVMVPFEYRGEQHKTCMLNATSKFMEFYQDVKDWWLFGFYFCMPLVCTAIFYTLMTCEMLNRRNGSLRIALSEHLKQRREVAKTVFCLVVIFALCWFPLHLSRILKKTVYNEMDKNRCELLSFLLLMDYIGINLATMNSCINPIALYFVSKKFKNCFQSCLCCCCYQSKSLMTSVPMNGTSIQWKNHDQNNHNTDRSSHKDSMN
Assay: Antagonist activity against human ET-1 by ELISA analysis
Type: functional

SMILES	IC50
COc1ccccc1Oc1c(NS(=O)(=O)c2ccc(C(C)(C)C)cc2)nc(-c2ncccn2)nc1OCC1CCCN(C)C1 (stereo not given)	1.43 nM
CC/C=C/CCOc1nc(-c2ncccn2)nc(NS(=O)(=O)c2ccc(C(C)(C)C)cc2)c1Oc1ccccc1OC	3.99 nM
COc1ccccc1Oc1c(NS(=O)(=O)c2ccccc2)nc(-c2ncccn2)nc1OCC1CCCC1	2.78 nM
COc1ccccc1Oc1c(NS(=O)(=O)c2ccc(C(C)(C)C)cc2)nc(-c2ncccn2)nc1OCCC(C)C	4.78 nM
CC#CCOc1nc(-c2ncccn2)nc(NS(=O)(=O)c2ccccc2)c1Oc1ccccc1OC	4.33 nM
COc1ccccc1Oc1c(NS(=O)(=O)c2ccc(C(C)(C)C)cc2)nc(-c2ncccn2)nc1OCC1CC1	1.22 nM
C=CCCOc1nc(-c2ncccn2)nc(NS(=O)(=O)c2ccc(C)cc2)c1Oc1ccccc1OC	3.78 nM
CC/C=C/CCOc1nc(-c2ncccn2)nc(NS(=O)(=O)c2ccc(C)cc2)c1Oc1ccccc1OC	3.92 nM
COc1ccccc1Oc1c(NS(C)(=O)=O)nc(-c2ncccn2)nc1OCC1CC1	2.38 nM
COc1ccccc1Oc1c(NS(=O)(=O)c2ccccc2)nc(-c2ncccn2)nc1OCC1CCCCN1C (stereo not given)	1.91 nM
COc1ccccc1Oc1c(NS(=O)(=O)c2ccc(C(C)(C)C)cc2)nc(-c2ncccn2)nc1OCC1CCCN1C (stereo not given)	1.46 nM
COc1ccccc1Oc1c(NS(=O)(=O)c2ccc(C)cc2)nc(-c2ncccn2)nc1OCC1CCCN(C)C1 (stereo not given)	2.46 nM
COc1ccccc1Oc1c(NS(=O)(=O)c2ccc(C)cc2)nc(-c2ncccn2)nc1OCCC(C)C	1.39 nM
C=CCCOc1nc(-c2ncccn2)nc(NS(C)(=O)=O)c1Oc1ccccc1OC	2.41 nM
COc1ccccc1Oc1c(NS(C)(=O)=O)nc(-c2ncccn2)nc1OCC1CCCC1	2.19 nM
COc1ccccc1Oc1c(NS(=O)(=O)c2ccccc2)nc(-c2ncccn2)nc1OCC1CCCN(C)C1 (stereo not given)	3.38 nM
C=CCCOc1nc(-c2ncccn2)nc(NS(=O)(=O)c2ccccc2)c1Oc1ccccc1OC	3.78 nM
COc1ccccc1Oc1c(NS(=O)(=O)c2ccc(C)cc2)nc(-c2ncccn2)nc1OCC(F)F	4.76 nM
COc1ccccc1Oc1c(NS(=O)(=O)c2ccccc2)nc(-c2ncccn2)nc1OCC1CC1	2.44 nM
COc1ccccc1Oc1c(NS(=O)(=O)c2ccccc2)nc(-c2ncccn2)nc1OCC1CCC1	1.84 nM

SMILES	IC50
COc1ccccc1Oc1c(NS(=O)(=O)c2ccc(C)cc2)nc(-c2ncccn2)nc1OCC1CC1	1.21 nM
COc1ccccc1Oc1c(NS(=O)(=O)c2ccc(C)cc2)nc(-c2ncccn2)nc1OCC1CCC1	3.22 nM
COc1ccccc1Oc1c(NS(=O)(=O)c2ccc(C)cc2)nc(-c2ncccn2)nc1OCC1CCCC1	1.62 nM
COc1ccccc1Oc1c(NS(=O)(=O)c2ccc(C(C)(C)C)cc2)nc(-c2ncccn2)nc1OCC1CCCC1	1.15 nM
COc1ccccc1Oc1c(NS(=O)(=O)c2ccc(C(C)(C)C)cc2)nc(-c2ncccn2)nc1OCC1CCC1	1.05 nM
COc1ccccc1Oc1c(NS(=O)(=O)c2ccccc2)nc(-c2ncccn2)nc1OCC(F)F	0.88 nM
CC#CCOc1nc(-c2ncccn2)nc(NS(C)(=O)=O)c1Oc1ccccc1OC	2.13 nM
COc1ccccc1Oc1c(NS(C)(=O)=O)nc(-c2ncccn2)nc1OCC1CCCN1C (stereo not given)	2.33 nM
C=CCCOc1nc(-c2ncccn2)nc(NS(=O)(=O)c2ccc(C(C)(C)C)cc2)c1Oc1ccccc1OC	1.24 nM
COc1ccccc1Oc1c(NS(=O)(=O)c2ccc(C)cc2)nc(-c2ncccn2)nc1OCC1CCCN1C (stereo not given)	3.53 nM
COc1ccccc1Oc1c(NS(=O)(=O)c2ccc(C)cc2)nc(-c2ncccn2)nc1OCC1CCCCN1C (stereo not given)	1.14 nM
COc1ccccc1Oc1c(NS(C)(=O)=O)nc(-c2ncccn2)nc1OCC1CCC1	1.69 nM
COc1ccccc1Oc1c(NS(C)(=O)=O)nc(-c2ncccn2)nc1OCC1CCCN(C)C1 (stereo not given)	2.01 nM
COc1ccccc1Oc1c(NS(=O)(=O)c2ccccc2)nc(-c2ncccn2)nc1OCCC(C)C	1.73 nM
CC#CCOc1nc(-c2ncccn2)nc(NS(=O)(=O)c2ccc(C)cc2)c1Oc1ccccc1OC	2.99 nM
COc1ccccc1Oc1c(NS(C)(=O)=O)nc(-c2ncccn2)nc1OCC1CCCCN1C (stereo not given)	2.21 nM
COc1ccccc1Oc1c(NS(C)(=O)=O)nc(-c2ncccn2)nc1OCC(F)F	0.47 nM
COc1ccccc1Oc1c(NS(=O)(=O)c2ccc(C(C)(C)C)cc2)nc(-c2ncccn2)nc1OCC1CCCCN1C (stereo not given)	2.59 nM
COc1ccccc1Oc1c(NS(=O)(=O)c2ccc(C(C)(C)C)cc2)nc(-c2ncccn2)nc1OCC(F)F	0.77 nM
CC/C=C/CCOc1nc(-c2ncccn2)nc(NS(=O)(=O)c2ccccc2)c1Oc1ccccc1OC	0.97 nM
